Reference: patent publication EP2913333A1 (priority 2014, dated 2015)
Counter-ions that a name gives are not always drawn. Like-named read-outs stand apart in the source and are kept apart here.

Experiments:
[1] = biological target: T1, E. feacium DltA (Enterococcus faecium, UniProt Q3XZT7); assay: in vitro DltA activity assay (luminescence, IC50 determination); format: biochemical
T1 sequence (Q3XZT7 1-504): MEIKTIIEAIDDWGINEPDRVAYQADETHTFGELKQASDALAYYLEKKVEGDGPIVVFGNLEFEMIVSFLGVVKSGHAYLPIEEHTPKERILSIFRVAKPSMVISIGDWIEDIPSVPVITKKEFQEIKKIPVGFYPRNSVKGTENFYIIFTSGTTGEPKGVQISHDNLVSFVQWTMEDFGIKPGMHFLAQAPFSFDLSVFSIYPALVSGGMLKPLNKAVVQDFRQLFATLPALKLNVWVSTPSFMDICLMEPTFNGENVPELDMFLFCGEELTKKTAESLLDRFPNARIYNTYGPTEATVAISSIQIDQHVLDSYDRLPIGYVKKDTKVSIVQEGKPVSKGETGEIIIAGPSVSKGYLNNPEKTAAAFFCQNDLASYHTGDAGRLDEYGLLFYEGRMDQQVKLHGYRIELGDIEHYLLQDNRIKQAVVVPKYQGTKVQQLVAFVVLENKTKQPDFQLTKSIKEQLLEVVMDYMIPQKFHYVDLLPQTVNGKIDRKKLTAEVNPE
Method: (§1) The effect of the compounds of the invention on DltA enzymes has been based on the measure of their inhibition of DltA activity in vitro. To this end, recombinant proteins DltA were expressed and purified after cloning of the genes of S. aureus, E. faecalis, E. faecium and S. agalactiae as described thereafter. The capacity of the compounds of the invention to inhibit DltA enzymatic activity was assessed using the DltA assays as described below: • The dltA gene was amplified from chromosomal DNA of S. aureus, E. faecalis, E. faecium and S. agalactiae and introduced into E. coli BL21 (Invitrogen, Carlsbad, CA) following manufacturer's instruction. Bacteria were grown at 37°C under aerobic conditions and isopropyl-beta-D-thiogalactopyranoside (IPTG) was added to 0.5-1 mM when OD600 of the bacterial culture had reached 0.5. After a further incubation for 3 hours, cells were harvested by centrifugation. Purification of the recombinant DltA protein was performed by affinity chromatography on nickel-nitrilotriacetic acid (Ni-NTA) column following manufacturer's instructions (Qiagen). Fractions containing recombinant DltA protein were adjusted to 50% glycerol and stored at -20°C until use.
(§2) The binding potency of the inhibitors against DltA enzyme was assessed by IC50 determination in an in vitro DltA activity assay. The assay buffer "AB" contained 50 mM Hepes pH8.0, 10mM MgCl2, 50mM KCI, 0.012% Triton-X100, 10mM DTT and 100nM Myelin-basic protein. The following components were added in a white polystyrene Costar plate up to a final volume of 30µL: 3µL DMSO, or inhibitor dissolved in DMSO and 27µL DltA enzyme in AB. After 30min of preincubation at room temperature, 30µL of Substrates mix in AB were added in each well to a final volume of 60µL. This reaction mixture was then composed of DltA (produced in house from S. aureus, E. faecalis, E. faecium and S. agalactiae), 0.5mM D-Alanine (Sigma), 0.5-5µM ATP (Sigma) and 0.05 u/ml inorganic pyrophosphatase (Sigma) in assay buffer. After typically 1-2hours of incubation at room temperature (conversion rate around 30%), 30µL of the revelation mix were added to a final volume of 90µL, including the following constituents at the respective final concentrations: 10000 u/ml luciferase (Sigma), 30µM D-luciferin (Sigma), 100µM N-acetylcysteamine (Aldrich). Luminescence intensity was immediately measured on a Fluostar Optima (BMG) (excitation 360nm, emission 520nm) and converted into inhibition percentages.
(§3) For compounds interfering with the luminescent signal (quenching), the same experiment without DltA enzyme was performed to allow quenching determination and correction.

[2] = biological target: T2, S. aureus DltA (Staphylococcus aureus, UniProt Q2FZW6); assay: as above; format: biochemical
T2 construct: made in house; host or cells: E. coli BL21
T2 sequence (Q2FZW6 1-485): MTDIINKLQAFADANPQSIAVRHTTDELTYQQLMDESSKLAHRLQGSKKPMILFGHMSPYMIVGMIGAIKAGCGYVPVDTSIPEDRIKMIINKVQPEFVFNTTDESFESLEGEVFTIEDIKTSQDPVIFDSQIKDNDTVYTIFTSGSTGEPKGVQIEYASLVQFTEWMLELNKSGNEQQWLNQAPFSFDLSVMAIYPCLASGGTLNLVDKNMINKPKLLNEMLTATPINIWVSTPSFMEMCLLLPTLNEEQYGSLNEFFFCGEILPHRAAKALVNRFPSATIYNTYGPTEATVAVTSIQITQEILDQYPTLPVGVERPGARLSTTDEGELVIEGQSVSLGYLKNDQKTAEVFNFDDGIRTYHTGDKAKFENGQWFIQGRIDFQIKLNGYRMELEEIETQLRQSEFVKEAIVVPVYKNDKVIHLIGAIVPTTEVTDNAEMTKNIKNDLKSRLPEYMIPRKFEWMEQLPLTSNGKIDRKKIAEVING
Method: as §1, §2, §3

[3] = biological target: T3, E. feacalis DltA (Enterococcus faecalis, UniProt Q830N0); assay: biochemical
T3 sequence (Q830N0 1-506): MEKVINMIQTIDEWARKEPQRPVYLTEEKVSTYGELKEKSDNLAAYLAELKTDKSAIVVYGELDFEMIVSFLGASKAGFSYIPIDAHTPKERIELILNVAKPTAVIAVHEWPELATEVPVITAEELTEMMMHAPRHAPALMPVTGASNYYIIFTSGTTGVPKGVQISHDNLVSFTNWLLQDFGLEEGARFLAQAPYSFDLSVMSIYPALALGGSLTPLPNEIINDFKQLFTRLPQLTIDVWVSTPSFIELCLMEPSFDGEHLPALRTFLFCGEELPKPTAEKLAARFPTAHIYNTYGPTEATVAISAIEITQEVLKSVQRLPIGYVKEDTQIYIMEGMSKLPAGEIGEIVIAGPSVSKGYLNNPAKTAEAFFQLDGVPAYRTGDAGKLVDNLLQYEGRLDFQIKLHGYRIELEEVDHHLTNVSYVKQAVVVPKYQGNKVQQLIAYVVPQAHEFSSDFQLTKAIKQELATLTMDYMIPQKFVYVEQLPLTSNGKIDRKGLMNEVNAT
Method: as §1, with “To” for “The effect of the compounds of the invention on DltA enzymes has been based on the measure of their inhibition of DltA activity in vitro. To”
as §2, §3

[4] = biological target: T4, S. Agalactiae DltA (Streptococcus agalactiae serotype III, UniProt Q8VM67); assay: biochemical
T4 sequence (Q8VM67 1-511): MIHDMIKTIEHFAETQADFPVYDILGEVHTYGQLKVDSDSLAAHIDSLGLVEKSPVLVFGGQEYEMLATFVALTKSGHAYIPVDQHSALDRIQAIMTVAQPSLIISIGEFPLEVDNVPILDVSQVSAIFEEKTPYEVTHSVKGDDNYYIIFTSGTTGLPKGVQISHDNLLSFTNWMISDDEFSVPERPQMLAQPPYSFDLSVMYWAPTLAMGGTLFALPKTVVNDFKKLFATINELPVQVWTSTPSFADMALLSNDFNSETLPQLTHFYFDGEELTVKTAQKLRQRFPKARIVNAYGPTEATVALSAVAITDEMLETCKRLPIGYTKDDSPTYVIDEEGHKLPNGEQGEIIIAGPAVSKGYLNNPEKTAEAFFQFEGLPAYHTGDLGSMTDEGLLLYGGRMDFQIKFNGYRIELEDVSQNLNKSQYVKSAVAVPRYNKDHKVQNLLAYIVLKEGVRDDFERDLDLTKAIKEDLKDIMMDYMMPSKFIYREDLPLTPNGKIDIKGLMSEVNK
Method: as §1, with “To” for “The effect of the compounds of the invention on DltA enzymes has been based on the measure of their inhibition of DltA activity in vitro. To”
as §2, §3

[5] = recombinant DltA, 30min preincubation at room temperature, 0.5mM D-Alanine, 0.5-5µM ATP, read-out: E. feacium DltA IC50

Structure (SMILES)	IC50 [1, 5] [µM]	IC50 [2] [µM]	IC50 [3] [µM]	IC50 [4] [µM]	IC50 [1] [µM]
O=c1[nH]cnc2c1c(C1CCC(CO)C1)cn2-c1ccc2c(c1)ncn2C1CCCCC1 (stereo not shown) [Example 58, 7-(1-Cyclohexyl-1H-benzoimidazol-5-yl)-5-(3-hydroxymethyl-cyclopentyl)-3,7-dihydro-pyrrolo[2,3-d]pyrimidin-4-one]	0.48	0.81	0.19	6.1	
O=c1[nH]cnc2c(-c3ccc4c(c3)ncn4C3CCCCC3)sc(N3CCNCC3)c12 [Example 28, 7-(1-cyclohexyl-1H-benzoimidazol-5-yl)-5-piperazin-1-yl-3H-thieno[3,4-d]pyrimidin-4-one hydrochloride]	0.16	0.15	0.048	1.2	
O=c1[nH]cnc2c1c(C1=CCNCC1)cn2-c1ccc2c(c1)ncn2C1CCCCC1 [Example 52, 7-(1-cyclohexyl-1H-benzoimidazol-5-yl)-5-(1,2,3,6-tetrahydro-pyridin-4-yl)-3,7-dihydro-pyrrolo[2,3-d]pyrimidin-4-one hydrochloride]	0.12	0.15	0.026	0.35	
O=c1[nH]cnc2c(-c3ccc4c(c3)ncn4C3CCCCC3)cn(C3CCC(O)C3)c12 (racemic) [Example 71A, 7-(1-Cyclohexyl-1H-benzimidazol-5-yl)-5-(3-hydroxy-cyclopentyl)-3,5-dihydro-pyrrolo[3,2-d]pyrimidin-4-one]	0.89	0.36	0.36	2.7	
O=c1[nH]cnc2c(-c3ccc4c(c3)ncn4C3CCCCC3)sc(N3CC[C@H](CO)C3)c12 [Example 7, 7-(1-Cyclohexyl-1H-benzoimidazol-5-yl)-5-((S)-3-hydroxymethyl-pyrrolidin-1-yl)-3H-thieno[3,4-d]pyrimidin-4-one]	0.12	0.07	0.037	3.2	
O=c1[nH]cnc2c(-c3ccc4c(c3)ncn4C3CCCCC3)sc(N3CCC(CO)(CO)C3)c12 [Example 13, 5-(3,3-Bis-hydroxymethyl-pyrrolidin-1-yl)-7-(1-cyclohexyl-1H-benzoimidazol-5-yl)-3H-thieno[3,4-d]pyrimidin-4-one]	0.14	0.044	0.041	0.98	
O=c1[nH]cnc2c(-c3ccc4c(c3)ncn4C3CCCCC3)cn([C@H]3CC[C@@H](CO)CC3)c12 [Example 74, 7-(1-Cyclohexyl-1H-benzimidazol-5-yl)-5-[cis-(4-hydroxymethyl-cyclohexyl)]-3,5-dihydro-pyrrolo[3,2-d]pyrimidin-4-one]	0.14	0.15	0.093	1.1	
O=c1[nH]cnc2c(-c3ccc4c(c3)ncn4C3CCCCC3)cn(CCCCCO)c12 [Example 68, 7-(1-Cyclohexyl-1H-benzimidazol-5-yl)-5-(5-hydroxy-pentyl)-3,5-dihydro-pyrrolo[3,2-d]pyrimidin-4-one]	0.73	0.29	0.32	4.5	
O=c1[nH]cnc2c(-c3ccc4c(c3)ncn4C3CCCCC3)cn(C3CCNC3)c12 (stereo not shown) [Example 77, 7-(1-Cyclohexyl-1H-benzimidazol-5-yl)-5-pyrrolidin-3-yl-3,5-dihydro-pyrrolo[3,2-d]pyrimidin-4-one]	0.51	0.093	0.13	1.6	
COCCn1cnc2cc(-c3sc(N4CC[C@H](CO)C4)c4c(=O)[nH]cnc34)ccc21 [Example 46, 5-((S)-3-hydroxymethyl-pyrrolidin-1-yl)-7-[1-(2-methoxy-ethyl)-1H-benzoimidazol-5-yl]-3H-thieno[3,4-d]pyrimidin-4-one]	0.44	0.15	0.15	5.1	
O=c1[nH]cnc2c(-c3ccc4c(c3)ncn4C3CCCCC3)sc(N3CC4CNCC4(CO)C3)c12 (stereo not shown) [Example 34, 7-(1-cyclohexyl-1H-benzoimidazol-5-yl)-5-hydroxymethyl-hexahydro-pyrrolo[3,4-c]pyrrol-2-yl)-3H-thieno[3,4-d]pyrimidin-4-one hydrochloride]		0.027	0.014	0.4	0.061
CC1CCCC(n2cnc3cc(-c4sc(N5CC[C@H](CO)C5)c5c(=O)[nH]cnc45)ccc32)C1 (stereo partly shown) [Example 48]	0.11	0.068			
